One may read the inhibition as the relative decrease from the control value, in per cent.

The structures appear in SMILES notation. Marks after values point to notes of the source that are not given here.

The subject of series [1] is tyrosine hydroxylase (TH) protein. Briefly: Induction of tyrosine hydroxylase (TH) in LC, SN and VTA of the mouse brain. In kind it is in vivo, Balb/C mouse. To be noted: three days after single injection, relative to mean value of control group. The text has this: A search is made among the compounds for those which are capable of bringing about an increase in the tyrosine hydroxylase (TH) protein in the locus coeruleus (LC), substantia nigra (SN) and ventral tegmental area (VTA) of the brain of the Balb/C mouse. The animals used are consanguinal male mice of the pure Balb/C strain (Charles River Laboratories) aged 6 weeks at the time of treatment.
The mice are given a single injection, by the intraperitoneal route, of the compound under test, dissolved in 0.04M HCl solution (corresponding control: 0.04M HCl), if the compound is sufficiently soluble, or in olive oil 90%/DMSO 10% (corresponding control: olive oil 90%/DMSO 10%) for compounds that are insoluble in an aqueous medium. The volume injected is 100 μl. The test groups comprise 10 animals.
Three days after the injection of each compound, all the animals are sacrificed by decapitation. The brains are removed and then frozen in an isopentane solution at −30° C. for 45 seconds and subsequently stored at −80° C.
Serial coronal sections 20 microns thick are then taken using a cryomicrotome. Each structure of interest is then sampled along the posterior-anterior axis of the brain by taking sections at 80-micron spacings in the case of the LC and at 80- or 160-micron spacings in the case of the VTA and SN. The limits of those structures are those described in the atlas of Franklin and Paxinos. The total proteins of each of those sections are transferred by direct collection of the sections to a nitrocellulose filter (Millipore). The amounts of TH present in each sample are measured by immunochemistry, fluorimetric detection and image analysis.

The target of series [2] is 5HT receptors (type 5HT2A) (Homo sapiens, UniProt P28223). Briefly: Affinity for receptors, displacement of labelled specific ligand: 5HT2A. In kind it is binding.
Series [3] addresses dopaminergic receptors (type D2) (Homo sapiens, UniProt P14416). The series is described as follows: Affinity for receptors, displacement of labelled specific ligand: D2. The class given is binding.
A short description of series [4]: Predicted metabolic stability, mouse hepatic microsomes. The class given is in vitro ADME. To be noted: 10^−7 M, mouse hepatic microsomes 0.33 mg of prot/ml, NADPH. As for the experimental part: (§1) The predicted metabolic stability is tested by incubation of the compounds at a concentration of 10^−7M in the presence of mouse, rat or human hepatic microsomes (0.33 mg of prot/ml). After addition of NADPH (nicotinamide adenine dinucleotide phosphate, reduced form), samples are taken at 0, 5, 15, 30 and 60 minutes. The enzymatic reaction is stopped using methanol (V/V). The protein is precipitated by centrifugation and the supernatant is analysed by LC-MS-MS.

Another series has as its system muscarinic (M) receptors. Briefly: Affinity for receptors, displacement of labelled specific ligand: muscarinic. The class given is binding. As for the experimental part: (§2) The affinity for receptors is determined according to customary methods of relations between the specific ligand and the receptor, which may be of animal origin or a human recombinant. The affinity was determined by the method of displacement of the labelled specific ligand by the compound under test and expressed by the dissociation constant KI. The receptor affinity was accordingly studied for 28 conventional receptors.

A short description of series [5]: Predicted metabolic stability, human hepatic microsomes. To be noted: 10^−7 M, human hepatic microsomes 0.33 mg of prot/ml, NADPH. In kind it is in vitro ADME. How it is done: as §1
The nature of series [6]: Predicted metabolic stability, rat hepatic microsomes. In kind it is in vitro ADME. To be noted: 10^−7 M, rat hepatic microsomes 0.33 mg of prot/ml, NADPH. How it is done: as §1
Series [7] relates to sigma (σ) receptors (ligand: haloperidol). Briefly: Affinity for receptors, displacement of labelled specific ligand: sigma. The class given is binding. Conditions: concentration 10^−5 M. As for the experimental part: as §2
Series [8] addresses dopaminergic receptors (type D1) (Homo sapiens, UniProt P21728). Briefly: Affinity for receptors, displacement of labelled specific ligand: D1. The class given is binding.

dopaminergic receptors (type D2), sequence (P14416 whole entry): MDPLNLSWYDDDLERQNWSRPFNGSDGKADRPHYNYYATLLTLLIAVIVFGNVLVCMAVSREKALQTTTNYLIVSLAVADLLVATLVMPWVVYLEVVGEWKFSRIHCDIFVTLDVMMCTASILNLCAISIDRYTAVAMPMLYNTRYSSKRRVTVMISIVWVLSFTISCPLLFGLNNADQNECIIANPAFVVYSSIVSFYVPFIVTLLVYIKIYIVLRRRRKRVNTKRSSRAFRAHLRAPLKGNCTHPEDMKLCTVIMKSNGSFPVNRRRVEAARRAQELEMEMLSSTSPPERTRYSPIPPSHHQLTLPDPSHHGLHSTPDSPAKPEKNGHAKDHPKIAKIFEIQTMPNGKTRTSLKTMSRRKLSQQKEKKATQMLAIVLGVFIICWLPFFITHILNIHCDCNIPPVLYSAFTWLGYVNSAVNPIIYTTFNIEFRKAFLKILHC
dopaminergic receptors (type D1), sequence (P21728 whole entry): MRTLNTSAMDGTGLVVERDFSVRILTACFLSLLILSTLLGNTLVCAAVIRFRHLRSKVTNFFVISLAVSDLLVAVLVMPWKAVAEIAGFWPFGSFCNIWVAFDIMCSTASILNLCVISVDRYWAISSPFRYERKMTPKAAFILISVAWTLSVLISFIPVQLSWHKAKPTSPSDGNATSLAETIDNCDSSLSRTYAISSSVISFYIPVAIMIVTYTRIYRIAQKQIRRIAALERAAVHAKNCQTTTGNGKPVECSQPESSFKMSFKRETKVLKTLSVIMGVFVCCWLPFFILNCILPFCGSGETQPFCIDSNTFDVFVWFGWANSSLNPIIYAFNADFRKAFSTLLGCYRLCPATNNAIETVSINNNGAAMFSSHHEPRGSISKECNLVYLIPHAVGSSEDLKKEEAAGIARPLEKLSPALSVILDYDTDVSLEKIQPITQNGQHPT
5HT receptors (type 5HT2A), sequence (P28223 whole entry): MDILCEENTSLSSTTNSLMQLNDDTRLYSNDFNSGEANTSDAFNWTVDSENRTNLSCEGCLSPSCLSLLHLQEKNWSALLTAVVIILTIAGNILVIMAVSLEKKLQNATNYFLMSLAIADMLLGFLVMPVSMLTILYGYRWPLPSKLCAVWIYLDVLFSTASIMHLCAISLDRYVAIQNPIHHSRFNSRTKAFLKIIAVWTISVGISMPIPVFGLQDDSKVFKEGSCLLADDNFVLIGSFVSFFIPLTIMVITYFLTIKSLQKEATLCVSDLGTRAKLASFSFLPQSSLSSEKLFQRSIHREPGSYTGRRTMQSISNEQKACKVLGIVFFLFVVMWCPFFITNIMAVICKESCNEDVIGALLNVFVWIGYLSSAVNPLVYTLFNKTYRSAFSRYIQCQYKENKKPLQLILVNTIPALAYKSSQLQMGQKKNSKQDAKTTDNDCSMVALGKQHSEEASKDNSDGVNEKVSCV

Regarding `CN1CCN(CCN2CCC=C(C(=O)Nn3ccc4cc(Cl)ccc43)C2)CC1` [Example 47, N-(5-Chloroindol-1-yl)-1-[2-(4-methylpiperazin-1-yl)ethyl]-1,2,5,6-tetrahydropyridine-3-carboxamide], the “amount of TH in LC section 1” value in series [1] (LC section 1 (posterior-to-anterior), i.p. 20 mg/kg) is 232** %. For the same compound, the “amount of TH in LC section 2” value in series [1] (LC section 2, i.p. 20 mg/kg) is reported as 138* %. Also, the “amount of TH in LC section 3” value in series [1] (LC section 3, i.p. 20 mg/kg) was 176** %. For the same compound, the “amount of TH in LC section 4” value in series [1] (LC section 4, i.p. 20 mg/kg) was 179** %. The “amount of TH in LC section 5” value in series [1] (LC section 5, i.p. 20 mg/kg) is listed as 172** %. Moreover, in [1] (LC section 6, i.p. 20 mg/kg), the “amount of TH in LC section 6” value is 169** %. Besides, in [1] (LC section 7, i.p. 20 mg/kg), the “amount of TH in LC section 7” value is 153** %. In series [1] (LC section 8, i.p. 20 mg/kg), the “amount of TH in LC section 8” value was 140** %. Also, the “amount of TH in LC section 9” value in series [1] (LC section 9, i.p. 20 mg/kg) is given as 84* %. Also, the “amount of TH in LC section 10” value in series [1] (LC section 10, i.p. 20 mg/kg) was found to be 88%. Also, the “amount of TH in LC section 11” value in [1] (LC section 11, i.p. 20 mg/kg) amounted to 127%. The “amount of TH, LC, total” value in series [1] (LC total, i.p. 20 mg/kg) is on record as 147** %. Also, the inhibition at 10 µM in series [2] (concentration 10^−5 M) was 15%; in [3] (concentration 10^−5 M), < 10%; in [8] (concentration 10^−5 M), < 10%. Moreover, the inhibition at 0.1 µM in series [2] (concentration 10^−7 M) was 10%; in series [3] (concentration 10^−7 M) it was < 10%; in series [8] (concentration 10^−7 M) it was < 10%. Further, the “% metabolic stability predicted using hepatic microsomes, Mouse” value in series [4] was 53%. Further, the “% inhibition M” value worked out at 10% with muscarinic (M) receptors (concentration 10^−5 M) and 19% with muscarinic (M) receptors (concentration 10^−7 M). For the same compound, the “% metabolic stability predicted using hepatic microsomes, Human” value in series [5] was 78%. For the same compound, the “% metabolic stability predicted using hepatic microsomes, Rat” value in [6] is recorded as 87%. In addition, the “% inhibition σ” value in series [7] came out at 67%.
